According to patent publication US8841312B2, “Fused pyridine, pyrimidine and triazine compounds as cell cycle inhibitors” (Amgen Inc., priority 2007, dated 2014):

What was measured:
Cdk4/CyclinD1 = Cdk4/CyclinD1 (Homo sapiens (Human), UniProt P11802); assay: Cdk4 kinase inhibition assay with recombinant Cdk4/CyclinD1, Rb substrate, [33P]-ATP filter plate; format: biochemical; details: 25 μM ATP, read-out: Cdk 4 IC50
Outline: (§1)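 Recombinant Cdk4/CyclinD1 or Cdk6/CyclinD3 phosphorylated Rb protein with [33P]-ATP for 1 h at room temperature. Protein was TCA-precipitated on filter plates and bound radioactivity counted. IC50 by nonlinear regression.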

Cdk6/CyclinD3 = Cdk6/CyclinD3 (Homo sapiens (Human), UniProt Q00534); assay: Cdk6 kinase inhibition assay with recombinant Cdk6/CyclinD3, Rb substrate, [33P]-ATP filter plate; format: biochemical; details: 25 μM ATP, read-out: Cdk 6 IC50
Chain of Cdk6/CyclinD3 (Q00534 whole entry): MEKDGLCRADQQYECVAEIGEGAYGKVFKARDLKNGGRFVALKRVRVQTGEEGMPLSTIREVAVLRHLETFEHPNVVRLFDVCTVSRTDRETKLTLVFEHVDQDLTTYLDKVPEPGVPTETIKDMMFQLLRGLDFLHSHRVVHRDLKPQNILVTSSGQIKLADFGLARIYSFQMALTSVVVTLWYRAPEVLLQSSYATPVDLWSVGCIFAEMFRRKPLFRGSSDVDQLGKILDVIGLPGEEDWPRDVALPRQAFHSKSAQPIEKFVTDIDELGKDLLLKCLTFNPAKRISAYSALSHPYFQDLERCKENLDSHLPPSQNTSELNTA
Chain of Cdk6/CyclinD3 (P30281 whole entry partner): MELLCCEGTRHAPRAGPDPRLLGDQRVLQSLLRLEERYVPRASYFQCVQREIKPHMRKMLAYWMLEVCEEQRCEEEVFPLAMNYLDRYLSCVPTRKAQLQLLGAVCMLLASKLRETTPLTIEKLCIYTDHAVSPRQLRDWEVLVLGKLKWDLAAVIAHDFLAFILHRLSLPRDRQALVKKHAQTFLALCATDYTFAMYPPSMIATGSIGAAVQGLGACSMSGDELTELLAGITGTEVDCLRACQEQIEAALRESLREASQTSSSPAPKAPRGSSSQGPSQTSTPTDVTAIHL
Outline: as §1

Chain of Cdk4/CyclinD1 (P11802 whole entry): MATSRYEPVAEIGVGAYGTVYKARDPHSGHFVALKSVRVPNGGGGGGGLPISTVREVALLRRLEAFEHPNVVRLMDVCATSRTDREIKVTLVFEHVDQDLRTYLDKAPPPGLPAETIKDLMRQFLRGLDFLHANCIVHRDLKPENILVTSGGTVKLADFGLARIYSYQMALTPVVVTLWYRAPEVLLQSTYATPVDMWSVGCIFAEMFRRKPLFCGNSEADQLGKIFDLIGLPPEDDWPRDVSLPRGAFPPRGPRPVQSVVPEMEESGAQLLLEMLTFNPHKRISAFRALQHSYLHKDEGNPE
Chain of Cdk4/CyclinD1 (P24385 whole entry partner): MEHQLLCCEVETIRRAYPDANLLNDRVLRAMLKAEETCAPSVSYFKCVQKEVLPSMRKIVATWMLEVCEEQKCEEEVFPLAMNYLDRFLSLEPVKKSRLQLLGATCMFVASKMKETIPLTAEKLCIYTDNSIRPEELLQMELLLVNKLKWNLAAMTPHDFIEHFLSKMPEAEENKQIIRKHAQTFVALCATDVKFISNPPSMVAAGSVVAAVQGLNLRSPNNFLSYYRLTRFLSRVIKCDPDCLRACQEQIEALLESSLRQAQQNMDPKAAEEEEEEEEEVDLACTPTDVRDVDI

| SMILES | IC50 (Cdk4/CyclinD1) [nM] | IC50 (Cdk6/CyclinD3) [nM] |
| --- | --- | --- |
| CC1CN(c2ccc(Nc3ncc4c5ccnc(F)c5n(C5CCCC5)c4n3)nc2)CC(C)N1 (stereo not drawn) [Example 189, 9-Cyclopentyl-N-(5-(3,5-dimethyl-1-piperazinyl)-2-pyridinyl)-8-fluoro-9H-pyrido[4′,3′:4,5]pyrrolo[2,3-d]pyrimidin-2-amine] | 20 | 22 |
| OCCC1CCN(c2ccc(Nc3ncc4c5ccnc(F)c5n(C5CCCC5)c4n3)nc2)CC1 [Example 190, 2-(1-(6-((9-Cyclopentyl-8-fluoro-9H-pyrido[4′,3′:4,5]pyrrolo[2,3-d]pyrimidin-2-yl)amino)-3-pyridinyl)-4-piperidinyl)ethanol] | 6.4 | 7.6 |
| c1cc2c3cnc(Nc4ccc(N5CCNCC5)cn4)nc3n(C3CCCC3)c2nn1 [Example 200, 9-Cyclopentyl-N-(5-(1-piperazinyl)-2-pyridinyl)-9H-pyrimido[5′,4′:4,5]pyrrolo[2,3-c]pyridazin-7-amine] | 36 | 13 |
| COc1cc2c3cnc(Nc4ccc(N5CCNCC5)cn4)nc3n(C3CCCC3)c2nn1 [Example 202, 9-cyclopentyl-3-methoxy-N-(5-(1-piperazinyl)-2-pyridinyl)-9H-pyrimido[5′,4′:4,5]pyrrolo[2,3-c]pyridazin-7-amine] | 141 | 520 |
| Fc1nccc2c3cnc(Nc4ccc(CN5CCNCC5)cn4)nc3n(C3CCCC3)c12 [Example 213, 9-cyclopentyl-8-fluoro-N-(5-(1-piperazinylmethyl)-2-pyridinyl)-9H-pyrido[4′,3′:4,5]pyrrolo[2,3-d]pyrimidin-2-amine] | 203 | 52 |
| Oc1nccc2c3cnc(Nc4ccc(CN5CCNCC5)cn4)nc3n(C3CCCC3)c12 [Example 214, 9-cyclopentyl-2-((5-(1-piperazinylmethyl)-2-pyridinyl)amino)-9H-pyrido[4′,3′:4,5]pyrrolo[2,3-d]pyrimidin-8-ol] | 14 | 21 |
| OC1CCN(Cc2ccc(Nc3ncc4c5ccncc5n(C5CCCC5)c4n3)nc2)CC1 [Example 215, 1-((6-((9-cyclopentyl-9H-pyrido[4′,3′:4,5]pyrrolo[2,3-d]pyrimidin-2-yl)amino)-3-pyridinyl)methyl)-4-piperidinol] | 4.4 | 8.2 |
| OC1CCCN(Cc2ccc(Nc3ncc4c5ccncc5n(C5CCCC5)c4n3)nc2)C1 (stereo not drawn) [Example 216, 1-((6-((9-cyclopentyl-9H-pyrido[4′,3′:4,5]pyrrolo[2,3-d]pyrimidin-2-yl)amino)-3-pyridinyl)methyl)-3-piperidinol] | 10 | 15 |
| CCOC(=O)CN1CCN(Cc2ccc(Nc3ncc4c5ccncc5n(C5CCCC5)c4n3)nc2)CC1 [Example 219, Ethyl (4-((6-((9-cyclopentyl-9H-pyrido[4′,3′:4,5]pyrrolo[2,3-d]pyrimidin-2-yl)amino)-3-pyridinyl)methyl)-1-piperazinyl)acetate] | 5.3 | 11 |
| O=C(O)c1ccc(Nc2ncc3c4ccnc(O)c4n(C4CCCC4)c3n2)nc1 [Example 224, 6-((9-cyclopentyl-8-hydroxy-9H-pyrido[4′,3′:4,5]pyrrolo[2,3-d]pyrimidin-2-yl)amino)-3-pyridinecarboxylic acid] | 520 | 860 |
| O=S(=O)(c1ccc(Nc2ncc3c4ccnc(F)c4n(C4CCCC4)c3n2)nc1)N1CCNCC1 [Example 228, 9-cyclopentyl-8-fluoro-N-(5-(1-piperazinylsulfonyl)-2-pyridinyl)-9H-pyrido[4′,3′:4,5]pyrrolo[2,3-d]pyrimidin-2-amine] | 15 | 3.9 |
| CN(C)C1CCN(S(=O)(=O)c2ccc(Nc3ncc4c5ccncc5n(C5CCCC5)c4n3)nc2)CC1 [Example 229, 9-cyclopentyl-N-(5-((4-(dimethylamino)-1-piperidinyl)sulfonyl)-2-pyridinyl)-9H-pyrido[4′,3′:4,5]pyrrolo[2,3-d]pyrimidin-2-amine] | 21.2 | 20.5 |
| CN(C)C1CCN(C(=O)c2ccc(Nc3ncc4c5ccncc5n(C5CCCC5)c4n3)nc2)CC1 [Example 230, 9-Cyclopentyl-N-(5-((4-(dimethylamino)-1-piperidinyl)carbonyl)-2-pyridinyl)-9H-pyrido[4′,3′:4,5]pyrrolo[2,3-d]pyrimidin-2-amine] | 16 | 16 |
| c1cc2c3cnc(Nc4ccc(N5CCNCC5)cn4)cc3n(Cc3ccsc3)c2cn1 [Example 235, N-(5-(1-piperazinyl)-2-pyridinyl)-5-(3-thiophenylmethyl)-5H-pyrido[3′,4′:4,5]pyrrolo[2,3-c]pyridin-3-amine] | 125 | 257 |
| C1=CCN(c2ccc(Nc3ncc4c5ccncc5n(C5CCCC5)c4n3)nn2)CC1 [Example 254, 9-Cyclopentyl-N-(6-(3,6-dihydro-1(2 H)-pyridinyl)-3-pyridazinyl)-9H-pyrido[4′,3′:4,5]pyrrolo[2,3-d]pyrimidin-2-amine] | 22 | 40 |
| C1=C(c2ccc(Nc3ncc4c5ccncc5n(C5CCCC5)c4n3)nn2)CCNC1 [Example 255, 9-Cyclopentyl-N-(6-(1,2,3,6-tetrahydro-4-pyridinyl)-3-pyridazinyl)-9H-pyrido[4′,3′:4.5]pyrrolo[2,3-d]pyrimidin-2-amine] | 5.6 | 60 |
| C1=C(c2ccc(Nc3ncc4c5ccncc5n(C5CCCC5)c4n3)nc2)CCNC1 [Example 256, 9-Cyclopentyl-N-(1′,2′,3′,6′-tetrahydro-3,4′-bipyridin-6-yl)-9H-pyrido[4′,3′:4,5]pyrrolo[2,3-d]pyrimidin-2-amine] | 1.3 | 7 |
| c1cc2c3cnc(Nc4ccc(C5CCNCC5)cn4)nc3n(C3CCCC3)c2cn1 [Example 257, 9-cyclopentyl-N-(5-(4-piperidinyl)-2-pyridinyl)-9H-pyrido[4′,3′:4,5]pyrrolo[2,3-d]pyrimidin-2-amine] | 7 | 5.3 |
| c1cc(-c2ccc(Nc3ncc4c5ccncc5n(C5CCCC5)c4n3)nn2)ccn1 [Example 259, 9-cyclopentyl-N-(6-(4-pyridinyl)-3-pyridazinyl)-9H-pyrido[4′,3′:4,5]pyrrolo[2,3-d]pyrimidin-2-amine] | 49 | 101 |
| c1cc(-c2ccc(Nc3ncc4c5ccncc5n(C5CCCC5)c4n3)nc2)ccn1 [Example 260, N-3,4′-bipyridin-6-yl-9-cyclopentyl-9H-pyrido[4′,3′:4,5]pyrrolo[2,3-d]pyrimidin-2-amine] | 45 | 60 |

The remaining compounds from weak to strong by IC50 (Cdk4/CyclinD1), led by results:

| IC50 (Cdk4/CyclinD1) [nM] | IC50 (Cdk6/CyclinD3) [nM] | SMILES |
| --- | --- | --- |
| 4 | 3 | O=C1CN(Cc2ccc(Nc3ncc4c5ccncc5n(C5CCCC5)c4n3)nc2)CCN1 [Example 225, 4-((6-((9-cyclopentyl-9H-pyrido[4′,3′:4,5]pyrrolo[2,3-d]pyrimidin-2-yl)amino)-3-pyridinyl)methyl)-2-piperazinone] |
| 3.9 | 27 | C[C@@H]1CN(c2ccc(Nc3ncc4c5ccnc(F)c5n(C5CCCC5)c4n3)nn2)CCN1 [Example 253, 9-Cyclopentyl-8-fluoro-N-(6-((3R)-3-methyl-1-piperazinyl)-3-pyridazinyl)-9H-pyrido[4′,3′:4,5]pyrrolo[2,3-d]pyrimidin-2-amine] |
| 3.6 | 9.8 | CCOC(=O)CN1CCN(c2ccc(Nc3ncc4c5ccncc5n(C5CCCC5)c4n3)nn2)CC1 [Example 217, ethyl (4-(6-((9-cyclopentyl-9H-pyrido[4′,3′:4,5]pyrrolo[2,3-d]pyrimidin-2-yl)amino)-3-pyridazinyl)-1-piperazinyl)acetate] |
| 3.5 | 1.1 | CC1(C)CCC(n2c3cnccc3c3cnc(Nc4ccc(N5CCNCC5)cn4)nc32)CC1 [Example 204, 9-(4,4-dimethylcyclohexyl)-N-(5-(1-piperazinyl)-2-pyridinyl)-9H-pyrido[4′,3′:4,5]pyrrolo[2,3-d]pyrimidin-2-amine] |
| 3.2 | 2.7 | O=C1CNCCN1Cc1ccc(Nc2ncc3c4ccncc4n(C4CCCC4)c3n2)nc1 [Example 226, 1-((6-((9-cyclopentyl-9H-pyrido[4′,3′:4,5]pyrrolo[2,3-d]pyrimidin-2-yl)amino)-3-pyridinyl)methyl)-2-piperazinone] |
| 3 | 3.1 | O=S(=O)(c1ccc(Nc2ncc3c4ccncc4n(C4CCCC4)c3n2)nc1)N1CCNCC1 [Example 227, 9-Cyclopentyl-N-(5-(1-piperazinylsulfonyl)-2-pyridinyl)-9H-pyrido[4′,3′:4,5]pyrrolo[2,3-d]pyrimidin-2-amine] |
| 2 | 5 | CN(C)C1CCN(c2ccc(Nc3ncc4c5ccnc(F)c5n(C5CCCC5)c4n3)nn2)CC1 [Example 252, 9-Cyclopentyl-N-(6-(4-(dimethylamino)-1-piperidinyl)-3-pyridazinyl)-8-fluoro-9H-pyrido[4′,3′:4,5]pyrrolo[2,3-d]pyrimidin-2-amine] |
| 1.4 | 8 | O=C(c1ccc(Nc2ncc3c4ccncc4n(C4CCCC4)c3n2)nc1)N1CCNCC1 [Example 221, 9-cyclopentyl-N-(5-(1-piperazinylcarbonyl)-2-pyridinyl)-9H-pyrido[4′,3′:4,5]pyrrolo[2,3-d]pyrimidin-2-amine] |
| 1.39 | 3.6 | O=C(O)CN1CCN(c2ccc(Nc3ncc4c5ccncc5n(C5CCCC5)c4n3)nn2)CC1 [Example 218, (4-(6-((9-cyclopentyl-9H-pyrido[4′,3′:4,5]pyrrolo[2,3-d]pyrimidin-2-yl)amino)-3-pyridazinyl)-1-piperazinyl)acetic acid] |
| 1 | 3.3 | O=C(O)CN1CCN(Cc2ccc(Nc3ncc4c5ccncc5n(C5CCCC5)c4n3)nc2)CC1 [Example 220, (4-((6-((9-cyclopentyl-9H-pyrido[4′,3′:4,5]pyrrolo[2,3-d]pyrimidin-2-yl)amino)-3-pyridinyl)methyl)-1-piperazinyl)acetic acid] |
